Laboratory results as given in US7547727B2, “Therapeutic cyclopentane derivatives” (Allergan, Inc., priority 2006, dated 2009).

What was measured:
human EP2 receptors = molecular target: T1, human EP2 receptors (Homo sapiens, UniProt P43116); experiment: Competition radioligand binding, EP2; conditions: HEK 293 cells stably expressing human EP2 receptors, [3H]PGE2
T1 construct: expressed in transfected cells; host or cells: HEK 293 (membranes or whole cells)
Description: Competition binding experiments were performed in a medium containing Hank's balanced salt solution, Hepes 20 mM, pH 7.3, membranes (˜60 μg protein) or 2×10^5 cells from HEK 293 cells stably expressing human EP2 receptors, [^3H]PGE2 (10 nM) and various concentrations of test compounds in a total volume of 300 μl. Reaction mixtures were incubated at 23° C. for 60 min, and were filtered over Whatman GF/B filters under vacuum. Filters were washed three times with 5 ml ice-cold buffer containing 50 mM Tris/HCl (pH 7.3). Non-specific binding was estimated in the presence of excess unlabeled PGE2 (10 μM). Binding data fitted to the binding model for a single class of binding sites, using nonlinear regression analysis. IC50 values thus obtained were converted to Ki using the equation of Ki=(IC50/(1+[L]/KD) where [L] represents PGE2 concentration (10 nM) and KD the dissociation constant for [^3H]PGE2 at human EP2 receptors (40 nM). […]
The cell homogenate was centrifuged at 19000 r.p.m. for 20 min at 4° C. using a Beckman Ti-60 rotor. The resultant pellet was resuspended in TME buffer to give a final 1 mg/ml protein concentration, as determined by Biorad assay. […]
[^3H-] […] 17-phenyl PGF2α and non-specific binding determined with 10^−5M of unlabeled PGE2, or 17-phenyl PGF2α, according to receptor subtype studied.

EP4 receptors = molecular target: T2, EP4 receptors (Homo sapiens, UniProt P35408); experiment: Radioligand binding, EP4; conditions: HEK-293 cells stably expressing EP4 receptors, [3H]PGE2
T2 construct: expressed in transfected cells; host or cells: HEK-293 (plasma membrane fraction)
T2 sequence (P35408 whole entry): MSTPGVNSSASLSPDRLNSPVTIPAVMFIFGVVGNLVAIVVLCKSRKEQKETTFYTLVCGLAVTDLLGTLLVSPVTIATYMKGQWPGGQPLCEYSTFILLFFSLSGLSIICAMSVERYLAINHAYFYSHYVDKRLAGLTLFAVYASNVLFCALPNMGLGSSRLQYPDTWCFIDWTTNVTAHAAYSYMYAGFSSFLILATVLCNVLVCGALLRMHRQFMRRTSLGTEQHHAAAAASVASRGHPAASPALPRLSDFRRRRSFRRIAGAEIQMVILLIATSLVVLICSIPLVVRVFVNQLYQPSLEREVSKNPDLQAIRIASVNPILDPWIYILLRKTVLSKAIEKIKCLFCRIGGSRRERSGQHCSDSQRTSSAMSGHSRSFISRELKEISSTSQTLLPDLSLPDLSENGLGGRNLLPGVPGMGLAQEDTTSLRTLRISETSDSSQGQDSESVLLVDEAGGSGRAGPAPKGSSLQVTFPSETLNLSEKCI
Description: HEK-293 cells stably expressing the human or feline FP receptor, or EP1, EP2, or EP4 receptors were washed with TME buffer, scraped from the bottom of the flasks, and homogenized for 30 sec using a Brinkman PT 10/35 polytron. TME buffer was added to achieve a final 40 ml volume in the centrifuge tubes (the composition of TME is 100 mM TRIS base, 20 mM MgCl2, […]; 10N HCl is added to achieve a pH of 7.4).
The cell homogenate was centrifuged at 19000 r.p.m. for 20 min at 4° C. using a Beckman Ti-60 rotor. The resultant pellet was resuspended in TME buffer to give a final 1 mg/ml protein concentration, as determined by Biorad assay. Radioligand binding competition assays vs. [^3H-]17-phenyl PGF2α (5 nM) were performed in a 100 μl volume for 60 min. Binding reactions were started by adding plasma membrane fraction. The reaction was terminated by the addition of 4 ml ice-cold TRIS-HCl buffer and rapid filtration through glass fiber GF/B filters using a Brandel cell harvester. The filters were washed 3 times with ice-cold buffer and oven dried for one hour.
[^3H-] PGE2 (specific activity 180 Ci mmol) was used as the radioligand for EP receptors. [^3H] 17-phenyl PGF2α was employed for FP receptor binding studies. […] 17-phenyl PGF2α and non-specific binding determined with 10^−5M of unlabeled PGE2, or 17-phenyl PGF2α, according to receptor subtype studied.

hFP = molecular target: T3, hFP (Homo sapiens, UniProt P43088); experiment: FLIPR calcium signal, FP; format: cell-based; conditions: HEK-293(EBNA) cells
T3 construct: expressed in transfected cells; host or cells: HEK-293(EBNA)
T3 sequence (P43088 whole entry): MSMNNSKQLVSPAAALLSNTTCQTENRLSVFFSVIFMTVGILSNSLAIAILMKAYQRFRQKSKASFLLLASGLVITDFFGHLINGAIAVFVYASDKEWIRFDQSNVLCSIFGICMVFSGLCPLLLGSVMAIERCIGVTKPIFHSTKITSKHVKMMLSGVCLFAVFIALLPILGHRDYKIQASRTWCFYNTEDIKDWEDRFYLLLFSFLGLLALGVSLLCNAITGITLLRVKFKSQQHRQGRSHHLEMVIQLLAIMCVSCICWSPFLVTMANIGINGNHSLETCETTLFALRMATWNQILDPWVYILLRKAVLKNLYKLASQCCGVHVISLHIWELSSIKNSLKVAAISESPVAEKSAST
Description: (§1) HEK-293(EBNA) cells, stably expressing one type or subtype of recombinant human prostaglandin receptors (prostaglandin receptors expressed: hDP/Gqs5; hEP1; hEP2/Gqs5; hEP3A/Gqi5; hEP4/Gqs5; hFP; hIP; hTP), were cultured in 100 mm culture dishes in high-glucose DMEM medium containing 10% fetal bovine serum, 2 mM I-glutamine, 250 μg/ml geneticin (G418) and 200 μg/ml hygromycin B as selection markers, and 100 units/ml penicillin G, 100 μg/ml streptomycin and 0.25 μg/ml amphotericin B.
(§2) Cells were seeded at a density of 5×10^4 cells per well in Biocoat® Poly-D-lysine-coated black-wall, clear-bottom 96-well plates (Becton-Dickinson) and allowed to attach overnight in an incubator at 37° C. Cells were then washed two times with HBSS-HEPES buffer (Hanks Balanced Salt Solution without bicarbonate and phenol red, 20 mM HEPES, pH 7.4) using a Denley Cellwash plate washer (Labsystems). […]
(§3) Cells were excited with an Argon laser at 488 nm, and emission was measured through a 510-570 nm bandwidth emission filter (FLIPR™, Molecular Devices, Sunnyvale, Calif.). […] The peak increase in fluorescence intensity was recorded for each well. […] The peak fluorescence change in each drug-containing well was then expressed relative to the controls. […]

hEP1 = molecular target: T4, hEP1 (Homo sapiens, UniProt P34995); experiment: FLIPR calcium signal, EP1; format: cell-based; conditions: HEK-293(EBNA) cells
T4 construct: expressed in transfected cells; host or cells: HEK-293(EBNA)
T4 sequence (P34995 1-402): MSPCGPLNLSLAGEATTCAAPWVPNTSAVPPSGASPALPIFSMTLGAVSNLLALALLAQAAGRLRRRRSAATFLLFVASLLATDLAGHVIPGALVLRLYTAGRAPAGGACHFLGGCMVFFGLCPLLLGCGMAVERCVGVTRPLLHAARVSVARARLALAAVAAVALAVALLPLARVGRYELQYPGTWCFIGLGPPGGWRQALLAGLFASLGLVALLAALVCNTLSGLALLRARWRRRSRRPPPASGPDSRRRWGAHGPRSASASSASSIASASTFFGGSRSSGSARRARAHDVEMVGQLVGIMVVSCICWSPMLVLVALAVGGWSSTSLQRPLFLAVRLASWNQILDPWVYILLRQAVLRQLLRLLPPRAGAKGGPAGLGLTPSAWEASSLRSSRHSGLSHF
Description: as §1, §2, §3

hEP2/Gqs5 = molecular target: T5, hEP2/Gqs5 (Homo sapiens, UniProt P43116); experiment: FLIPR calcium signal, EP2; format: cell-based; conditions: HEK-293(EBNA) cells, read-out: Ca2+ Signal-EC50(nM) EP2
T5 construct: expressed in transfected cells; host or cells: HEK-293(EBNA)
T5 sequence (P43116 whole entry): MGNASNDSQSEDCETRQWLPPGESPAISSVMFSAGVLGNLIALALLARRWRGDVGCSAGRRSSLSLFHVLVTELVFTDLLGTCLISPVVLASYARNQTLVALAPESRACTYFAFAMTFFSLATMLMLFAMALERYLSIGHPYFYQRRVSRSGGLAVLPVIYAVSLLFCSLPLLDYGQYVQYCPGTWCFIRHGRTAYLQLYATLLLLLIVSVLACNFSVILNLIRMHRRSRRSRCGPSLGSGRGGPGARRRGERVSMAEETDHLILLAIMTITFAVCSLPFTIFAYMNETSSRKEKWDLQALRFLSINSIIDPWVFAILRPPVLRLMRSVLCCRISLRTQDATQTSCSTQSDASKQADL
Description: as §1, §2, §3

hEP3A/Gqi5 = molecular target: T6, hEP3A/Gqi5 (Homo sapiens, UniProt P43115); experiment: FLIPR calcium signal, EP3; format: cell-based; conditions: HEK-293(EBNA) cells, read-out: Ca2+ Signal-EC50(nM) EP3
T6 construct: expressed in transfected cells; host or cells: HEK-293(EBNA)
T6 sequence (P43115 1-390): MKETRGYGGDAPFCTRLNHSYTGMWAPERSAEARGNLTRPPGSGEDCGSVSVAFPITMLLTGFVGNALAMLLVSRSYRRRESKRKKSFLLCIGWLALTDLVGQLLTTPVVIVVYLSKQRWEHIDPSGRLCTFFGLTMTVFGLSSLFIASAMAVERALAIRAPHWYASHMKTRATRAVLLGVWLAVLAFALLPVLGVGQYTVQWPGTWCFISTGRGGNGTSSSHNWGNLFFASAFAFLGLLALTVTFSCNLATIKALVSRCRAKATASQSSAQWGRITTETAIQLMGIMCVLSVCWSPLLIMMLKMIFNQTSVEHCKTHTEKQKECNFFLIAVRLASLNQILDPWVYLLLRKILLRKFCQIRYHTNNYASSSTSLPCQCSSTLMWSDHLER
Description: as §1, §2, §3

hEP4/Gqs5 = molecular target: T7, hEP4/Gqs5 (Homo sapiens, UniProt P35408); experiment: FLIPR calcium signal, EP4; format: cell-based; conditions: HEK-293(EBNA) cells
T7 construct: expressed in transfected cells; host or cells: HEK-293(EBNA)
T7 sequence (P35408 whole entry): as the sequence (P35408 whole entry) above
Description: as §1, §2, §3

hTP = molecular target: T8, hTP (Homo sapiens, UniProt P21731); experiment: FLIPR calcium signal, TP; format: cell-based; conditions: HEK-293(EBNA) cells
T8 construct: expressed in transfected cells; host or cells: HEK-293(EBNA)
T8 sequence (P21731 1-343): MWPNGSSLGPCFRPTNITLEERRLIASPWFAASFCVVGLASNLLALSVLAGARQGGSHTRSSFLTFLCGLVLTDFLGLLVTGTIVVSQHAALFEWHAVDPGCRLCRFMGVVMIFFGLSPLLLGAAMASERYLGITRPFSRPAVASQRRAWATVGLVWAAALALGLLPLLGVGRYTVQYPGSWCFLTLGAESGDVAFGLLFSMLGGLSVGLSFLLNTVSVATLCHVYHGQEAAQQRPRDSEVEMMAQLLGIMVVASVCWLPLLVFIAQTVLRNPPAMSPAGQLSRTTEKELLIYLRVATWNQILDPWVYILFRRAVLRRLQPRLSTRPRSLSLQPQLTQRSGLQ
Description: as §1, §2, §3

hIP = molecular target: T9, hIP (Homo sapiens, UniProt P43119); experiment: FLIPR calcium signal, IP; format: cell-based; conditions: HEK-293(EBNA) cells
T9 construct: expressed in transfected cells; host or cells: HEK-293(EBNA)
T9 sequence (P43119 whole entry): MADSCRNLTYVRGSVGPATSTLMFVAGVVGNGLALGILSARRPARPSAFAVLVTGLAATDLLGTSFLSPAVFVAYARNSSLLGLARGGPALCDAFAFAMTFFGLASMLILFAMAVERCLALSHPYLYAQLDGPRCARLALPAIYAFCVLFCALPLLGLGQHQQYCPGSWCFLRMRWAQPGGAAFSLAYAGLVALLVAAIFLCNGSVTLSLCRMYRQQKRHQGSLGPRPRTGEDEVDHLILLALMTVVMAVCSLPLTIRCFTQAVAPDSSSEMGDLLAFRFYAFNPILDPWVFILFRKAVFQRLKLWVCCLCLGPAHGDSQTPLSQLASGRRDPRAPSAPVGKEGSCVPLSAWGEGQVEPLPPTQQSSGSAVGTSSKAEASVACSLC
Description: as §1, §2, §3

hDP/Gqs5 = molecular target: T10, hDP/Gqs5 (Homo sapiens, UniProt Q13258); experiment: FLIPR calcium signal, DP; format: cell-based; conditions: HEK-293(EBNA) cells
T10 construct: expressed in transfected cells; host or cells: HEK-293(EBNA)
T10 sequence (Q13258 1-359): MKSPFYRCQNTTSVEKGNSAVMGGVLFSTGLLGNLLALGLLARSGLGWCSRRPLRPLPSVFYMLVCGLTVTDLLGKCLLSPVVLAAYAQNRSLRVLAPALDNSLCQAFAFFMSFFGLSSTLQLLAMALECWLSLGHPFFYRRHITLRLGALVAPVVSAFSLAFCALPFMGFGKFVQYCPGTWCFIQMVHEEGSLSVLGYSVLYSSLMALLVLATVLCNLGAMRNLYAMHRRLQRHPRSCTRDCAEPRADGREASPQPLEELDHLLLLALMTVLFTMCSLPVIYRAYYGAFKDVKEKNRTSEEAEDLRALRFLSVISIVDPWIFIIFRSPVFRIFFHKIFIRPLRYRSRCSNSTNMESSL
Description: as §1, §2, §3

T1 sequence (P43116 whole entry): as the sequence (P43116 whole entry) above

Ki (human EP2 receptors): 1250 nM
Ki (EP4 receptors): > 10000 nM
Ca2+ Signal-EC50(nM) FP (hFP): not active
Ca2+ Signal-EC50(nM) EP1 (hEP1): not active
EC50 (hEP2/Gqs5): 34 nM
EC50 (hEP3A/Gqi5): 10000 nM
Ca2+ Signal-EC50(nM) EP4 (hEP4/Gqs5): not active
Ca2+ Signal-EC50(nM) TP (hTP): not active
Ca2+ Signal-EC50(nM) IP (hIP): not active
Ca2+ Signal-EC50(nM) DP (hDP/Gqs5): not active
SMILES: CCCCCC(O)c1ccc([C@@H]2[C@@H](C/C=C\CCCC(=O)O)[C@H](C#N)C[C@H]2O)cc1 (stereo partly drawn) [(Z)-7-{(1S,2S,3R,5R)-5-Cyano-3-hydroxy-2-[4-(1-hydroxy-hexyl)-phenyl]-cyclopentyl}-hept-5-enoic acid]
